Experimental data reported in ChEMBL document CHEMBL4507291 (2021).

How the values were obtained:
[1] = biological target: Tyrosine-protein kinase Blk (Homo sapiens) (UniProt P51451)
[2] = biological target: T1, Beta-adrenergic receptor kinase 1 (Homo sapiens) (UniProt P25098)
T1 sequence (whole entry): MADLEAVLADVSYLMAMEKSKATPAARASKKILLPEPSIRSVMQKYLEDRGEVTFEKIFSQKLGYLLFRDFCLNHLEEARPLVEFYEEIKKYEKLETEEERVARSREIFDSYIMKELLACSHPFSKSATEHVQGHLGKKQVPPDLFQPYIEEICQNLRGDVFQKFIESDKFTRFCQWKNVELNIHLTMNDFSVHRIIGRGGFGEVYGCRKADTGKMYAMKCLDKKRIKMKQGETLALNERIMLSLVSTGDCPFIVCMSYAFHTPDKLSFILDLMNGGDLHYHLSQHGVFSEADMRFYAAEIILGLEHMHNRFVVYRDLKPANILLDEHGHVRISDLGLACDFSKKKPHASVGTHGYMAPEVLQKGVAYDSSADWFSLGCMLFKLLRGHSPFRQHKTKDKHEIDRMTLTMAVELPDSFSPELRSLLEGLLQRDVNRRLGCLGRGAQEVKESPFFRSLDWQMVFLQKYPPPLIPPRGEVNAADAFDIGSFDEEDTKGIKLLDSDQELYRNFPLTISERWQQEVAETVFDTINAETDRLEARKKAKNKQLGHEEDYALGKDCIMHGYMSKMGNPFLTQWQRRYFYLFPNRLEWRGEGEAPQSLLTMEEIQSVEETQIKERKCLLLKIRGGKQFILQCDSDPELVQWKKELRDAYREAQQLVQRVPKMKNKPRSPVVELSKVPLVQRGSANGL

[3] = biological target: Mast/stem cell growth factor receptor Kit (Homo sapiens) (UniProt P10721)
[4] = biological target: Serine/threonine-protein kinase 33 (Homo sapiens) (UniProt Q9BYT3)
[5] = biological target: Ephrin type-B receptor 6 (Homo sapiens) (UniProt O15197)
[6] = biological target: Macrophage-stimulating protein receptor (Homo sapiens) (UniProt Q04912)
[7] = biological target: Tyrosine-protein kinase FRK (Homo sapiens) (UniProt P42685)
[8] = biological target: Glycogen synthase kinase-3 alpha (Homo sapiens) (UniProt P49840)
[9] = biological target: Muscarinic acetylcholine receptor M3 (Homo sapiens) (UniProt P20309); conditions: Compound concentration 10.0 uM
[10] = biological target: Dual specificity testis-specific protein kinase 1 (Homo sapiens) (UniProt Q15569)
[11] = biological target: Beta-2 adrenergic receptor (Homo sapiens) (UniProt P07550); conditions: Compound concentration 10.0 uM
[12] = biological target: 3-phosphoinositide-dependent protein kinase 1 (Homo sapiens) (UniProt O15530)
[13] = biological target: Myosin light chain kinase family member 4 (Homo sapiens) (UniProt Q86YV6)
[14] = biological target: Myosin light chain kinase (Homo sapiens) (UniProt Q32MK0)
[15] = biological target: Calcium/calmodulin-dependent protein kinase kinase 2 (Homo sapiens) (UniProt Q96RR4)
[16] = biological target: Tyrosine-protein kinase JAK1 (Homo sapiens) (UniProt P23458)
[17] = biological target: Serine/threonine-protein kinase SIK1 (Homo sapiens) (UniProt P57059)
[18] = biological target: Serine/threonine-protein kinase 36 (Homo sapiens) (UniProt Q9NRP7)
[19] = biological target: T2, Serine/threonine-protein kinase NLK (Homo sapiens) (UniProt Q9UBE8)
T2 sequence (whole entry): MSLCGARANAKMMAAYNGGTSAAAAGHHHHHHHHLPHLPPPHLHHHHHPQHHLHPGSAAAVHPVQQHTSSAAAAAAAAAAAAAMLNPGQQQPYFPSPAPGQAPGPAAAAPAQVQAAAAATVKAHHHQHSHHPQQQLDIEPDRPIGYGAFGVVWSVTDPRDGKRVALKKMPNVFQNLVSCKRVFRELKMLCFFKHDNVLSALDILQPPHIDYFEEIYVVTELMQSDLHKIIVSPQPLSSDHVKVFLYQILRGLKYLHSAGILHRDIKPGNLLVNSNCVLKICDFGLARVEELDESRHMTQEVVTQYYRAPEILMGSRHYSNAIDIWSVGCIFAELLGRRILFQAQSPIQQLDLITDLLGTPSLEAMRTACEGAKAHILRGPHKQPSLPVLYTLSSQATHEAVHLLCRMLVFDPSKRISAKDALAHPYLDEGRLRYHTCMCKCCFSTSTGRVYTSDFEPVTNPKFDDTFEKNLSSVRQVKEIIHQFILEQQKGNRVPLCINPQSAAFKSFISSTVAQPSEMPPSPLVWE

[20] = biological target: Mitogen-activated protein kinase kinase kinase 1 (Homo sapiens) (UniProt Q13233)
[21] = biological target: D(4) dopamine receptor (Homo sapiens) (UniProt P21917); conditions: Compound concentration 10.0 uM
[22] = biological target: Non-receptor tyrosine-protein kinase TYK2 (Homo sapiens) (UniProt P29597)
[23] = Compound concentration 1000.0 nM
[24] = Compound concentration 100.0 nM

Chain of Myosin light chain kinase family member 4 (Homo sapiens) (Q86YV6 whole entry): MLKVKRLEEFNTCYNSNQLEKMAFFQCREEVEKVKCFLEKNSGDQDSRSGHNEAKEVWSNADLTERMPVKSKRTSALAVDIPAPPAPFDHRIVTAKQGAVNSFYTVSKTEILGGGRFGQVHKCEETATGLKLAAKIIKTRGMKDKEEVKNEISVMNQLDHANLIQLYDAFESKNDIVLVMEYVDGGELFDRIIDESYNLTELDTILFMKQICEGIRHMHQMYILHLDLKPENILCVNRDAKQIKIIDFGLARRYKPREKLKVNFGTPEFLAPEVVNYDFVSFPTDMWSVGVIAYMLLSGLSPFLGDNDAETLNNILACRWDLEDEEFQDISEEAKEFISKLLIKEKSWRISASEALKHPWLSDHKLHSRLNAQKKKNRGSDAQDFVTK
Chain of Macrophage-stimulating protein receptor (Homo sapiens) (Q04912 25-304 limits assumed): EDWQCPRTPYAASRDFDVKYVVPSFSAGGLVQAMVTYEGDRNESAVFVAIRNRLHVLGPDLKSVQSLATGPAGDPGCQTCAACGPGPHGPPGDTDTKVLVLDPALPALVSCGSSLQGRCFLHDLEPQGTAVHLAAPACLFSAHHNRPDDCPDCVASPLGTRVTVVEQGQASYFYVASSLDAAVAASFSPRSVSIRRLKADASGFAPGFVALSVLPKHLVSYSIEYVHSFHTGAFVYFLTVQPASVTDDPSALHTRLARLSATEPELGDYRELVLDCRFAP
Chain of Macrophage-stimulating protein receptor (Homo sapiens) (Q04912 310-1400 limits assumed): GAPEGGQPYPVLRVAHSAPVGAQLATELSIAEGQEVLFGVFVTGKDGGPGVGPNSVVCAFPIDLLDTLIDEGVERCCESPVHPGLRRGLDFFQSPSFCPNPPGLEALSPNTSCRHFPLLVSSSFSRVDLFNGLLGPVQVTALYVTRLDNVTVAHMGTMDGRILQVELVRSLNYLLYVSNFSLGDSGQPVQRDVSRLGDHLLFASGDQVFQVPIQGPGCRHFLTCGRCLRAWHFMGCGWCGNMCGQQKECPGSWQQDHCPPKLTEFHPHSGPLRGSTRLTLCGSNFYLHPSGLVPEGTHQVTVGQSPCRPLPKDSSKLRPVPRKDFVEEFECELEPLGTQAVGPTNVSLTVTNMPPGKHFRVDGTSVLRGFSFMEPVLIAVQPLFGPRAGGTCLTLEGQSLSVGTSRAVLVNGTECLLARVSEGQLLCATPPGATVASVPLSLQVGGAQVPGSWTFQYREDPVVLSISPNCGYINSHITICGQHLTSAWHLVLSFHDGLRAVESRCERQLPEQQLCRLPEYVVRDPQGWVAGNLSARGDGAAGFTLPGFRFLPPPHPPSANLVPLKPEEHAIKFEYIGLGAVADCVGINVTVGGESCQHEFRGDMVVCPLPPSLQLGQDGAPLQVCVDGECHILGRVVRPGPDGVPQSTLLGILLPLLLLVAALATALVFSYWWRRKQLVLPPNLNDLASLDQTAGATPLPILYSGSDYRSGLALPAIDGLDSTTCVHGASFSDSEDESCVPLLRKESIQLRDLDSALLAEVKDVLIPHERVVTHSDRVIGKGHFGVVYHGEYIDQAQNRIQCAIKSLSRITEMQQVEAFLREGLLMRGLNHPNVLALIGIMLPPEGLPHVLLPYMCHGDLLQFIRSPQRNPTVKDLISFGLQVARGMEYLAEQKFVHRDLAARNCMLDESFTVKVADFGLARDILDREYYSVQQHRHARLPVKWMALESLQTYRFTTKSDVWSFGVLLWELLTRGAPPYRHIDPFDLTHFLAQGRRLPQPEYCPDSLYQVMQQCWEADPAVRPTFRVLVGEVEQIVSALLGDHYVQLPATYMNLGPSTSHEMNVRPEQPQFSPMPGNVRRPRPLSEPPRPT
Chain of D(4) dopamine receptor (Homo sapiens) (P21917 whole entry): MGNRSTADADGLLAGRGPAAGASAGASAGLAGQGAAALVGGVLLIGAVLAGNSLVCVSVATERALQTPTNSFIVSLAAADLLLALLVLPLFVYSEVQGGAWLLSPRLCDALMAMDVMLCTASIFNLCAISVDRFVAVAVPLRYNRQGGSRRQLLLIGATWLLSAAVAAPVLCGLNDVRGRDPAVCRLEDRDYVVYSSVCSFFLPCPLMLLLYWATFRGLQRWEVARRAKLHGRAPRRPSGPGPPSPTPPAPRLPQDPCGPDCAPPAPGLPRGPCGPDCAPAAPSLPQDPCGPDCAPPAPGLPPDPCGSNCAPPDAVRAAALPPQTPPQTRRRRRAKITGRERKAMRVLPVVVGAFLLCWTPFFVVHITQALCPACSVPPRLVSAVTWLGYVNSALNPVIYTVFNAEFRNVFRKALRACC
Chain of Mast/stem cell growth factor receptor Kit (Homo sapiens) (P10721 whole entry): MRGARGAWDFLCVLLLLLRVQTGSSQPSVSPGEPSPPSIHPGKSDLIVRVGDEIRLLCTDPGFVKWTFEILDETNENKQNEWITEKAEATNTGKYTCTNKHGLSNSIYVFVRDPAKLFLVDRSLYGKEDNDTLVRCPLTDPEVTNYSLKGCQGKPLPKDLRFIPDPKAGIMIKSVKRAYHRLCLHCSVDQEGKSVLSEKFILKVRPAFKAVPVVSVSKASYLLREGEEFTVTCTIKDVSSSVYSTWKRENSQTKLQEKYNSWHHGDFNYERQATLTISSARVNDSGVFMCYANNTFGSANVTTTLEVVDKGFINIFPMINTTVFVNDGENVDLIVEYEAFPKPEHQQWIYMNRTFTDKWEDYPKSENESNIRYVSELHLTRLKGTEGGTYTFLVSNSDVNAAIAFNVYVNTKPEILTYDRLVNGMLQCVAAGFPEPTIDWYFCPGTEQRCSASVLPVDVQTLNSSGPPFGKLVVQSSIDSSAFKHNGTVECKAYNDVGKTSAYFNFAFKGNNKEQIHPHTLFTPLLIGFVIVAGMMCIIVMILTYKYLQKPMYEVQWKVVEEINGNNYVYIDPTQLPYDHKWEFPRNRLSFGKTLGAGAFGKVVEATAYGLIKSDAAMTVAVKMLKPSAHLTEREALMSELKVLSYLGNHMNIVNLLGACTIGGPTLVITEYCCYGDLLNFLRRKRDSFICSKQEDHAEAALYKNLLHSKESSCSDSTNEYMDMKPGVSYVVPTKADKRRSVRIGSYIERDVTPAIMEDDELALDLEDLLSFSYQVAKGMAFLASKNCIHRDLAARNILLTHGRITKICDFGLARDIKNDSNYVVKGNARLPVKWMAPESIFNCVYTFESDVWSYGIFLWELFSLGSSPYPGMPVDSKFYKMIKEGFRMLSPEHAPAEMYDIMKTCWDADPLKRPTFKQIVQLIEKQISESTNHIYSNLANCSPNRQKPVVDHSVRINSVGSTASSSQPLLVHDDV
Chain of 3-phosphoinositide-dependent protein kinase 1 (Homo sapiens) (O15530 whole entry): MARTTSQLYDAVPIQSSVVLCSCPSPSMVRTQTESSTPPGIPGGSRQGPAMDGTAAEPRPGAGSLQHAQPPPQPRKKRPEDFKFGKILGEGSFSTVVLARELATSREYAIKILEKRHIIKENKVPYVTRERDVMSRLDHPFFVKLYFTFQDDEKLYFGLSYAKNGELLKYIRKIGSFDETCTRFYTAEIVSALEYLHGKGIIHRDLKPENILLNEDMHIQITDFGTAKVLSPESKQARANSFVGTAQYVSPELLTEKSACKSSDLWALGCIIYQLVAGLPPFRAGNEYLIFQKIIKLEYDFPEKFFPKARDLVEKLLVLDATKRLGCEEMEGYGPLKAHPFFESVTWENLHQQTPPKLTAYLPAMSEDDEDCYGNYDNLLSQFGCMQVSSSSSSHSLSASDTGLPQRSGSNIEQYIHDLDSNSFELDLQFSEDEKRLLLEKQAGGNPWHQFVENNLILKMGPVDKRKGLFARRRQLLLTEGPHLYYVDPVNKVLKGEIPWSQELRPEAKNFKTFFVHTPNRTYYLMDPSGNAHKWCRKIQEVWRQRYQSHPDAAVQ
Chain of Myosin light chain kinase (Homo sapiens) (Q32MK0 whole entry): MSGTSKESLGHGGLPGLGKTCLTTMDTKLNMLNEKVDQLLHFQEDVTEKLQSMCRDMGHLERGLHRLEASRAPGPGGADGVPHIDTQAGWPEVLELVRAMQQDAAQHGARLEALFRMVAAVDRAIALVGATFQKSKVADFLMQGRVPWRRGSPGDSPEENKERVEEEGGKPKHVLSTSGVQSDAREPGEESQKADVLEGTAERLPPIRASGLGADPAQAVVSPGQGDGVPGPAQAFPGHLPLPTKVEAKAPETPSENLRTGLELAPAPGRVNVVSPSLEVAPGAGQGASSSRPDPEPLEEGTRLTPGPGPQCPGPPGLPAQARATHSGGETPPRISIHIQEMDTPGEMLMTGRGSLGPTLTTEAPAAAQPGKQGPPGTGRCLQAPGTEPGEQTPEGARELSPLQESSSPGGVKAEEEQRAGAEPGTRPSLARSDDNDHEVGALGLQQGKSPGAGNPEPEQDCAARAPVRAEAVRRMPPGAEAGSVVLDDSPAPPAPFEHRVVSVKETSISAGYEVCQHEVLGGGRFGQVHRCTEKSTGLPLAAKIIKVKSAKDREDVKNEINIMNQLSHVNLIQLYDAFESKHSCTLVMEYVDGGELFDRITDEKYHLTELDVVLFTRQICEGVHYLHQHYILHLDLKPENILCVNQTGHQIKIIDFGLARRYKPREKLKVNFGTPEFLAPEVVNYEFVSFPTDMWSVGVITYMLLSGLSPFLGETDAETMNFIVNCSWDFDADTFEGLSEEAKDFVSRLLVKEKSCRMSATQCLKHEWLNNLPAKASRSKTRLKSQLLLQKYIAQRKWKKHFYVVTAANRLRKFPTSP
Chain of Glycogen synthase kinase-3 alpha (Homo sapiens) (P49840 2-483 limits assumed): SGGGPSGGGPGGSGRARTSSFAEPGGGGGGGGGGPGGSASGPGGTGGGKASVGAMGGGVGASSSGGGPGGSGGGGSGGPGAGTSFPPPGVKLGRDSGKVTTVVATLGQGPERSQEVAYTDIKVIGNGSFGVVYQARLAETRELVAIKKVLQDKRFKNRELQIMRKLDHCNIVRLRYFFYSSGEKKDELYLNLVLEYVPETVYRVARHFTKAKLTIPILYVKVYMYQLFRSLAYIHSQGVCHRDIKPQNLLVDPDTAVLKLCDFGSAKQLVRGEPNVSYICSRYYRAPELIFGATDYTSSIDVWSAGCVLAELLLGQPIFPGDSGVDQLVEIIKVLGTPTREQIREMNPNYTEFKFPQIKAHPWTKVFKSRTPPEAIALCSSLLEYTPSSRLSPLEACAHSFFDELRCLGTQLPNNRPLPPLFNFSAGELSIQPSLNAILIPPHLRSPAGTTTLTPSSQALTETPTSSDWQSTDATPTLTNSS

C[C@@H]1CN(c2cc(-c3nn(C)c4ccc(OC5(C)CC5)cc34)ncn2)C[C@H](C)O1 [MLi-2-NC]
inactive: residual activity [1, 23] 95% | residual activity [2, 23] 68% | residual activity [3, 23] 97% | residual activity [4, 23] 86% | residual activity [5, 23] 100% | residual activity [6, 23] 100% | residual activity [7, 23] 100% | residual activity [8, 23] 86% | inhibition [9] 6.03% | residual activity [10, 23] 100% | inhibition [11] 13.8% | residual activity [12, 23] 100% | residual activity [13, 23] 100% | residual activity [14, 23] 97% | residual activity [15, 23] 85% | residual activity [16, 23] 84% | residual activity [17, 23] 96% | residual activity [18, 23] 93% | residual activity [19, 23] 96% | residual activity [20, 23] 92% | inhibition [21] -2.65% | residual activity [22, 23] 51%

C[C@@H]1CN(c2cc(-c3n[nH]c4ccc(OC5(C)CC5)cc34)ncn2)C[C@H](C)O1 [MLi-2]
inactive: residual activity [1, 24] 83% | residual activity [2, 24] 86% | residual activity [3, 24] 70% | residual activity [4, 24] 86% | residual activity [5, 24] 91% | residual activity [6, 24] 100% | residual activity [7, 24] 100% | residual activity [8, 24] 100% | inhibition [9] 7.93% | residual activity [10, 24] 75% | inhibition [11] 26.4% | residual activity [12, 24] 78% | residual activity [13, 24] 100% | residual activity [14, 24] 87% | residual activity [15, 24] 100% | residual activity [16, 24] 79% | residual activity [17, 24] 100% | residual activity [18, 24] 86% | residual activity [19, 24] 100% | residual activity [20, 24] 63% | inhibition [21] -4.87% | residual activity [22, 24] 81%
